{"source": "patent US12108719B2", "about": "“Methods for creating doubled haploid plants” (Monsanto Technology LLC, priority 2015, dated 2024)", "key": {"[1]": {"test_system": "induced haploid germplasms (A and B)", "test": "Co-dominant ear induction by PBZ soil drench in colchicine-treated haploid maize (Example 1)", "assay_type": "in vivo", "excerpt": "V1-V3 seedlings of two unique F1 hybrid-derived haploid maize lines, derived from: female heterotic group (Germplasm A) or male heterotic group (Germplasm B), were subjected to a bulk colchicine-based chromosome doubling treatment by removing the seedlings from soil or growth media at the V1-V3 growth stage and aligning their stems and wrapping them together along with several wooden rods into bundle a held together by a strip of aluminum foil (approximate foil strip dimensions were 6 in×18 in). The bundled plants were submerged in plant treatment solution comprising 1250 ppm of colchicine in a centrifuge container and then the entire sample was centrifuged at 50 g for 3 min while the shoot apical meristems (SAMs) remained submerged in the plant treatment agent solution.\nFollowing the first centrifugation, the plant treatment solution was decanted and the seedlings subjected to an addition centrifugation at 335 g for 3 min. During the second centrifugation, the rod-wrap bundle supported the seedlings and prevented the SAMs from contacting the reserve treatment agent that was not absorbed by the plant during application of the centrifugal force.\nFollowing the second centrifugation, the plants were removed from the centrifugation container and the rod-wrap bundle and rinsed with water to remove any remaining colchicine solution, and then recovered and tended in a light, humidity, and temperature-controlled greenhouse for several days before being transplanted to a nursery greenhouse. These centrifuge-based treatment methods are described in more detail in International application number PCT/US2015/028955, which is incorporated by reference herein in its entirety, however, standard doubling treatments can also be applied to any of the haploid doubling steps referred to herein.\nFollowing colchicine doubling treatment, 15-20 plants from each germplasm were planted in pots at two different densities; either as single plants per pot (singles), or as two plants per pot (pairs).\nNext, each plant received one of two different doses of PBZ, either 50 mL (low dose) or 60 mL (high dose) of a 2.5% PBZ solution (v/v; 0.4% of active ingredient) in water. These two different doses were applied by soil drench at either the V7 or V8 growth stage, which occurred a total of 23 or 26 days after the seedlings had been subjected to chromosome doubling treatment, respectively. A control group of plants received no treatment solution but were otherwise treated exactly as the experimental groups planted as singles. When pollen shed began at the tassels, the average number of silk-producing ears (i.e. co-dominant ears) were counted for each dosage, germplasm, and treatment time and the results summarized in Table. 1."}, "[2]": {"test_system": "DH0 plants", "test": "Ears classified by number of DH1 seed produced, first 3 co-dominant ears (Example 4)", "assay_type": "in vivo, maize", "design": "key: Class A ears produced approximately 50 seeds; Class B ears produced approximately 20-49 seeds; Class C ears produced approximately 1-20 seeds; Class 0 ears produced zero seeds; “—” represents a situation where a third ear was not formed by the plant", "excerpt": "When the DH1 ears were harvested in the experiment described in Example 3, four DH0 plants selected randomly from each germplasm were subjected to further scrutiny comprising recording of the approximate number of seeds produced from the first 3 co-dominant ears for each plant. […] In Table 4, ears are assigned to one of 4 categories, depending on the approximate number of seeds they produced: Class A ears produced approximately 50 seeds, Class B ears produced approximately 20-49 seeds, Class C ears produced approximately 1-20 seeds, and Class 0 ears produced zero seeds."}, "[3]": {"test_system": "maize inbred lines Germplasm A and LH244", "test": "Co-dominant ear induction in diploid inbred lines (Example 5)", "assay_type": "in vivo", "procedure": "Seeds of maize inbred lines Germplasm A and LH244 were planted in soil, germinated, and then transplanted to 10-inch pots after approximately one week, one seedling per pot. The plants were subjected to a co-dominant ear induction treatment at the V8 stage comprising drenching the soil surrounding the roots of each plant with 50 mL of a 2.5% PBZ solution (v/v; 0.4% of active ingredient). The plants were tended in a greenhouse until sexual maturity, then they were self-pollinated. When seed set had completed, the number of co-dominant ears, and the total number of kernels, produced by each plant were counted. Control plants for each germplasm were processed in the same way as the treated groups, except that the control plants were not subjected to the co-dominant ear induction treatment."}, "[4]": {"test_system": "haploid mother plant", "test": "Tiller induction with doubled haploid mother plant (Example 7)", "assay_type": "in vivo, maize", "procedure": "A haploid mother plant will be subjected to doubling treatment and thereafter planted in a pot, the soil surrounding the roots drenched with 100 mL of 2.5% of paclobutrazol, and then tended standard maize green house growing conditions for several days. […] One of the resulting daughter tiller plants can be separated from the mother plant, transplanted into a separate pot, and grown via standard green house management procedures to eventually recover a daughter plant with normal haploid morphology."}}, "data": [{"compound": "CC(C)(C)[C@H](O)[C@H](Cc1ccc(Cl)cc1)n1cncn1", "note": "(relative stereo) [PBZ, (2S,3S)-1-(4-chlorophenyl)-4,4-dimethyl-2-(1,2,4-triazol-1-yl) pentan-3-ol]", "values": [{"measurement": "number of co-dominant ears formed per plant", "setting": "[1]; V7, Germplasm A, planted as pairs, low dose (50 mL 2.5% PBZ)", "result": 3}, {"measurement": "average EP of high dosage greater than EP of low dosage", "setting": "[1]; all plants, high vs low dosage", "result": 0.31}, {"measurement": "high-dose EP average higher than the low-dose", "setting": "[1]; only the singles", "result": 0.55}, {"measurement": "minimum increase of EP over control plants", "setting": "[1]; singles subjected to the low dose", "result": "≥ 1.2", "unit": "EP"}, {"measurement": "Ears classified by the number of DH1 seed they produced", "setting": "[2]; A, Plant 1, 1st ear", "result": "C (Class C ears produced approximately 1-20 seeds)"}, {"measurement": "Ears classified by the number of DH1 seed they produced", "setting": "[2]; A, Plant 1, 2nd ear", "result": "B (Class B ears produced approximately 20-49 seeds)"}, {"measurement": "Ears classified by the number of DH1 seed they produced", "setting": "[2]; A, Plant 1, 3rd ear", "result": "C (Class C ears produced approximately 1-20 seeds)"}, {"measurement": "Ears classified by the number of DH1 seed they produced", "setting": "[2]; A, Plant 2, 1st ear", "result": "C (Class C ears produced approximately 1-20 seeds)"}, {"measurement": "Ears classified by the number of DH1 seed they produced", "setting": "[2]; A, Plant 2, 2nd ear", "result": "A (Class A ears produced approximately 50 seeds)"}, {"measurement": "Ears classified by the number of DH1 seed they produced", "setting": "[2]; A, Plant 2, 3rd ear", "result": "C (Class C ears produced approximately 1-20 seeds)"}, {"measurement": "Ears classified by the number of DH1 seed they produced", "setting": "[2]; A, Plant 3, 1st ear", "result": "C (Class C ears produced approximately 1-20 seeds)"}, {"measurement": "Ears classified by the number of DH1 seed they produced", "setting": "[2]; A, Plant 3, 2nd ear", "result": "C (Class C ears produced approximately 1-20 seeds)"}, {"measurement": "Ears classified by the number of DH1 seed they produced", "setting": "[2]; A, Plant 3, 3rd ear", "result": "B (Class B ears produced approximately 20-49 seeds)"}, {"measurement": "Ears classified by the number of DH1 seed they produced", "setting": "[2]; A, Plant 4, 1st ear", "result": "A (Class A ears produced approximately 50 seeds)"}, {"measurement": "Ears classified by the number of DH1 seed they produced", "setting": "[2]; A, Plant 4, 2nd ear", "result": "C (Class C ears produced approximately 1-20 seeds)"}, {"measurement": "Ears classified by the number of DH1 seed they produced", "setting": "[2]; A, Plant 4, 3rd ear", "result": "0 (Class 0 ears produced zero seeds)"}, {"measurement": "Ears classified by the number of DH1 seed they produced", "setting": "[2]; B, Plant 1, 1st ear", "result": "C (Class C ears produced approximately 1-20 seeds)"}, {"measurement": "Ears classified by the number of DH1 seed they produced", "setting": "[2]; B, Plant 1, 2nd ear", "result": "A (Class A ears produced approximately 50 seeds)"}, {"measurement": "Ears classified by the number of DH1 seed they produced", "setting": "[2]; B, Plant 1, 3rd ear", "result": "—"}, {"measurement": "Ears classified by the number of DH1 seed they produced", "setting": "[2]; B, Plant 2, 1st ear", "result": "B (Class B ears produced approximately 20-49 seeds)"}, {"measurement": "Ears classified by the number of DH1 seed they produced", "setting": "[2]; B, Plant 2, 2nd ear", "result": "C (Class C ears produced approximately 1-20 seeds)"}, {"measurement": "Ears classified by the number of DH1 seed they produced", "setting": "[2]; B, Plant 2, 3rd ear", "result": "C (Class C ears produced approximately 1-20 seeds)"}, {"measurement": "Ears classified by the number of DH1 seed they produced", "setting": "[2]; B, Plant 3, 1st ear", "result": "C (Class C ears produced approximately 1-20 seeds)"}, {"measurement": "Ears classified by the number of DH1 seed they produced", "setting": "[2]; B, Plant 3, 2nd ear", "result": "A (Class A ears produced approximately 50 seeds)"}, {"measurement": "Ears classified by the number of DH1 seed they produced", "setting": "[2]; B, Plant 3, 3rd ear", "result": "C (Class C ears produced approximately 1-20 seeds)"}, {"measurement": "Ears classified by the number of DH1 seed they produced", "setting": "[2]; B, Plant 4, 1st ear", "result": "C (Class C ears produced approximately 1-20 seeds)"}, {"measurement": "Ears classified by the number of DH1 seed they produced", "setting": "[2]; B, Plant 4, 2nd ear", "result": "A (Class A ears produced approximately 50 seeds)"}, {"measurement": "Ears classified by the number of DH1 seed they produced", "setting": "[2]; B, Plant 4, 3rd ear", "result": "C (Class C ears produced approximately 1-20 seeds)"}, {"measurement": "Ears classified by the number of DH1 seed they produced", "setting": "[2]; Control A, Plant 1, 1st ear", "result": "B (Class B ears produced approximately 20-49 seeds)"}, {"measurement": "Ears classified by the number of DH1 seed they produced", "setting": "[2]; Control A, Plant 1, 2nd ear", "result": "A (Class A ears produced approximately 50 seeds)"}, {"measurement": "Ears classified by the number of DH1 seed they produced", "setting": "[2]; Control A, Plant 1, 3rd ear", "result": "—"}, {"measurement": "Ears classified by the number of DH1 seed they produced", "setting": "[2]; Control A, Plant 2, 1st ear", "result": "C (Class C ears produced approximately 1-20 seeds)"}, {"measurement": "Ears classified by the number of DH1 seed they produced", "setting": "[2]; Control A, Plant 2, 2nd ear", "result": "B (Class B ears produced approximately 20-49 seeds)"}, {"measurement": "Ears classified by the number of DH1 seed they produced", "setting": "[2]; Control A, Plant 2, 3rd ear", "result": "C (Class C ears produced approximately 1-20 seeds)"}, {"measurement": "Ears classified by the number of DH1 seed they produced", "setting": "[2]; Control A, Plant 3, 1st ear", "result": "A (Class A ears produced approximately 50 seeds)"}, {"measurement": "Ears classified by the number of DH1 seed they produced", "setting": "[2]; Control A, Plant 3, 2nd ear", "result": "C (Class C ears produced approximately 1-20 seeds)"}, {"measurement": "Ears classified by the number of DH1 seed they produced", "setting": "[2]; Control A, Plant 3, 3rd ear", "result": "0 (Class 0 ears produced zero seeds)"}, {"measurement": "Ears classified by the number of DH1 seed they produced", "setting": "[2]; Control A, Plant 4, 1st ear", "result": "B (Class B ears produced approximately 20-49 seeds)"}, {"measurement": "Ears classified by the number of DH1 seed they produced", "setting": "[2]; Control A, Plant 4, 2nd ear", "result": "B (Class B ears produced approximately 20-49 seeds)"}, {"measurement": "Ears classified by the number of DH1 seed they produced", "setting": "[2]; Control A, Plant 4, 3rd ear", "result": "0 (Class 0 ears produced zero seeds)"}, {"measurement": "Ears classified by the number of DH1 seed they produced", "setting": "[2]; Control B, Plant 1, 1st ear", "result": "C (Class C ears produced approximately 1-20 seeds)"}, {"measurement": "Ears classified by the number of DH1 seed they produced", "setting": "[2]; Control B, Plant 1, 2nd ear", "result": "C (Class C ears produced approximately 1-20 seeds)"}, {"measurement": "Ears classified by the number of DH1 seed they produced", "setting": "[2]; Control B, Plant 1, 3rd ear", "result": "B (Class B ears produced approximately 20-49 seeds)"}, {"measurement": "Ears classified by the number of DH1 seed they produced", "setting": "[2]; Control B, Plant 2, 1st ear", "result": "A (Class A ears produced approximately 50 seeds)"}, {"measurement": "Ears classified by the number of DH1 seed they produced", "setting": "[2]; Control B, Plant 2, 2nd ear", "result": "A (Class A ears produced approximately 50 seeds)"}, {"measurement": "Ears classified by the number of DH1 seed they produced", "setting": "[2]; Control B, Plant 2, 3rd ear", "result": "0 (Class 0 ears produced zero seeds)"}, {"measurement": "Ears classified by the number of DH1 seed they produced", "setting": "[2]; Control B, Plant 3, 1st ear", "result": "A (Class A ears produced approximately 50 seeds)"}, {"measurement": "Ears classified by the number of DH1 seed they produced", "setting": "[2]; Control B, Plant 3, 2nd ear", "result": "0 (Class 0 ears produced zero seeds)"}, {"measurement": "Ears classified by the number of DH1 seed they produced", "setting": "[2]; Control B, Plant 3, 3rd ear", "result": "C (Class C ears produced approximately 1-20 seeds)"}, {"measurement": "Ears classified by the number of DH1 seed they produced", "setting": "[2]; Control B, Plant 4, 1st ear", "result": "B (Class B ears produced approximately 20-49 seeds)"}, {"measurement": "Ears classified by the number of DH1 seed they produced", "setting": "[2]; Control B, Plant 4, 2nd ear", "result": "B (Class B ears produced approximately 20-49 seeds)"}, {"measurement": "Ears classified by the number of DH1 seed they produced", "setting": "[2]; Control B, Plant 4, 3rd ear", "result": "C (Class C ears produced approximately 1-20 seeds)"}, {"measurement": "Ave. Ears Per Plant", "setting": "[3]; Treated, Germplasm A diploid, 50 mL 2.5% PBZ soil drench at V8", "result": 8}, {"measurement": "response of average total kernels per plant and average ears per plant vs control", "setting": "[3]; both germplasms (Germplasm A, LH244)", "result": "more than doubling"}, {"measurement": "DH1 seeds yielded by daughter tiller plant when selfed", "setting": "[4]; daughter tiller separated and transplanted", "result": "several dozen DH1 seeds"}, {"measurement": "morphology and tiller production of mother plant", "setting": "[4]; haploid mother plant after doubling treatment, 100 mL of 2.5% paclobutrazol soil drench", "result": "shortened internodes and increased tiller production"}]}]}
